Results from patent publication US20070077202A1, “Histostain composition for endoscope” (PENTAX Corporation, priority 2005, published 2007).

What was measured:
mouse large intestine [1] = assay: mouse large intestine staining with xanthomonasin A, excised after 1 minute and 10 minutes; assay type: in vivo; conditions: 1 mg/mL saline, 100 μL
Description: Mice (ddY, 9-week-old, male) were anesthetized, and 100 μL xanthomonasin A (centrifuged and dried sample, 1 mg/mL saline) was injected via an injection needle into the large intestine lumen for staining. The mouse large intestines were excised after 1 minute and 10 minutes respectively, and the samples were observed under a confocal microscope (TCS SP2).

mouse large intestine [2] = assay: mouse large intestine staining test with purified xanthomonasin A, confocal image; assay type: in vivo; conditions: 10 mg/mL saline, 100 μL, 5 minutes
Description: Using purified xanthomonasin A in Example 10, a mouse large intestine staining test was carried out. A mouse (ddY, 9-week-old, male) was anesthetized, and 100 μL xanthomonasin A (centrifuged and dried sample, 10 mg/mL saline) was injected via an injection needle into the large intestine lumen for staining. After 5 minutes, the mouse large intestine was excised and its confocal image was taken and observed under a confocal microscope (TCS SP2).

mouse large intestine [3] = assay: mouse large intestine staining test with xanthomonasin A, frozen section observation; assay type: in vivo; conditions: 10 mg/mL saline, 100 μL, 5 minutes; 6 μm frozen section
Description: Purified xanthomonasin A in Example 10 was used in a mouse large intestine staining test and for observing a frozen section. A mouse (ddY, 11-week-old, male) was anesthetized, and 100 μL xanthomonasin A (centrifuged and dried sample, 10 mg/mL saline) was injected via an injection needle into the large intestine lumen for staining. After 5 minutes, the mouse large intestine was excised, frozen and embedded in OCT compound, and the frozen section thus obtained was cut into thin slices each having a thickness of 6 μm. The thin slices were observed by hematoxylin-eosin staining and also observed for fluorescence by staining with xanthomonasin A.

large intestine tissue [4] = assay: relative fluorescence brightness estimated from spectral sensitivity of the confocal microscope; assay type: in vivo, mouse; conditions: same dye concentration
Description: That is, this function can be used for relative estimation of the fluorescence intensity of each of the samples having different brightness levels.
The fluorescence brightness of a sample with Sodium fluorescein relative to Monascus color (yellow), as calculated on the basis of such spectral sensitivity as to give the same degree of fluorescence brightness, was 0.74 times after 10 minutes or 0.84 times after 60 minutes.

large intestine tissue [5] = assay: staining test by perfusion through the heart of a mouse; assay type: in vivo; conditions: 1 mg/mL
Description: A staining test was carried out with Monascus color (yellow) (1 mg/mL, 2 mL) by perfusion thereof through the heart of a mouse. […] The permeability of stain by this perfusion staining method was higher than the method in which the excised tissue is stained (Example 2) or the method in which colors are injected through the anus (Example 7). […] That is, the well-stained sites were the same as in Examples 7 and 8.
Sodium fluorescein (1 mg/mL) was also examined in the same manner as in Example 9.

SMILES	stained sites, 1 minute versus 10 minutes (mouse large intestine [1])	visibility (mouse large intestine [1]; stained for 10 minutes)	quality of sectional images (mouse large intestine [2])	staining of epithelial cells (mouse large intestine [3])	staining of muscular plate (mouse large intestine [3])	fluorescence brightness relative to Monascus color (yellow) (large intestine tissue [4]; after 10 minutes)	fluorescence brightness relative to Monascus color (yellow) (large intestine tissue [4]; after 60 minutes)	staining of cell nuclei (large intestine tissue [5])	staining of cells constituting the mucosa (large intestine tissue [5])	staining of mucus components of goblet cells (large intestine tissue [5])
C/C=C/[C@]1(O)Cc2c(oc(O)c2C=O)C2=C(C(=O)CCCCC)C(=O)O[C@@]21C [xanthomonasin A]	identical in respect of stained sites	could be further improved	very vivid sectional images were obtained	stained relatively excellently	excellently stained	–	–	–	–	–
O=C([O-])c1ccccc1-c1c2ccc(=O)cc-2oc2cc([O-])ccc12.[Na+].[Na+] [Sodium fluorescein]	–	–	–	–	–	0.74 times	0.84 times	could not be judged	many of the cells constituting the mucosal tissue were stained well	not stained
